Laboratory results reported in patent publication US10908141B2, “Methods and kits for detecting non-luminescent or weakly luminescent metals” (New York University, priority 2012, dated 2021).
Where “and” joins values, the source holds several entries; their conditions need not be identical. Identical values can stand only once.

Tests used:
[1] = Diffusivity by dynamic light scattering (DLS); format: physicochemical
[2] = in vivo; cited from earlier work
[3] = Absorption and fluorescence spectroscopy (plate reader / nanodrop); format: physicochemical
[4] = Stability of the chelate in solution over time (Tb/Gd metal exchange); format: physicochemical; details: 5, 30, and 60 minutes
Excerpt: To determine the stability of the chelate in solution as a function of time, readings were made at different time points. If there is an exchange of Tb with Gd on the sensitized chelate, then a dramatic increase in signal should be observed. The intensity of cs124-DTPA-Tb is 10000 fold higher than the equivalent concentration of cs124-DTPA-Gd.

[5] = mouse plasma, 0.1 mmol/kg via saphenous vein, bi-exponential fit
[6] = Xylenol orange determination of free Gd3+ after chelation; format: physicochemical
Method: When xylenol orange coordinates Gd^3+ ion, absorption at 573 decreases relative to that at 433.
For determination of free Gd^3+ in solution after chelation. 3 mg xylenol orange was dissolved in 50 mM acetic acid pH 5.8, and 90 μL added to each well of a clear 96 well plate. Triplicate samples of 10 μL 10^−3M cs124-DTPA were added to each well, and increasing amounts of […] titrated in. Absorption was read at 573 and 433, against a standard of known Gd^3+ concentration.

| Compound | Relaxivity r1 (Relaxivity r1) [M⁻¹ ms⁻¹] | Diffusivity D [1] | Distribution half-life [2] [min] | Distribution time (manufacturer's data) [2] [min] | Elimination time (manufacturer's data) [2] [min] | Plasma clearance half-life [2] | Absorbance Amax [3] [nm] | Fluorescence Emmax [3] [nm] | Fluorescence Exmax [3] [nm] | Relaxivity compared with DTPA-Gd (Relaxivity r1) | Change of intensity over time (metal exchange between sensitized and unsensitized chelates) [4] | Characteristic distribution time [5] | Elimination time [5] | Free Gd3+ ion concentration ([6]; incubated with 50 mM xylenol orange) [%] | Concentration of chelated complex above which free Gd3+ is detectable ([6]; incubated with xylenol orange in 50 mM acetic acid pH 5.8) |
| --- | --- | --- | --- | --- | --- | --- | --- | --- | --- | --- | --- | --- | --- | --- | --- |
| [Gd+3] [Gd3+, reference compound] | 9.16 ± 0.96 | 8.0 × 10^−6 cm^2/s |  |  |  |  |  |  |  |  |  |  |  |  |  |
| O=C([O-])CN(CCN(CC(=O)[O-])CC(=O)O)CCN(CC(=O)[O-])CC(=O)O.[Gd+3] [Magnevist ®, gadolinium-diethylenetriaminepentaacetic acid] | 3.4 |  | 12 | 12.2 ± 7.8 | 96.0 ± 7.8 | approximately 81 min |  |  |  |  |  |  |  |  |  |
| Cc1cc(=O)[nH]c2cc(N)ccc12 [cs124, carbostyril124, reference compound] |  |  |  |  |  |  | 328 | 370 | 310 |  |  |  |  |  |  |
| carbostyril-124-diethylenetriaminepentaacetic acid-Gadolinium [cs124-DTPA-Gd] | 3.32 ± 1.4 | 2.5 × 10^−6 cm^2/s |  |  |  |  | 328 | 375 | 341 | the same as that of DTPA-Gd | No significant change | 13.2 ± 0.543 min and 14 min | 92.2 ± 11.7 min and 90 min | 0.06 | above 1.75 mM |
